Converted amounts (≈) assume the structure as drawn.
Experiments:
[1] = target: T1, Glucose-dependent insulinotropic receptor (Mus musculus) (UniProt Q7TQP3); assay: Agonist activity at mouse GPR119 by cAMP assay relative to control; type: functional; design: concentration or dose not given beside the values
T1 sequence (whole entry): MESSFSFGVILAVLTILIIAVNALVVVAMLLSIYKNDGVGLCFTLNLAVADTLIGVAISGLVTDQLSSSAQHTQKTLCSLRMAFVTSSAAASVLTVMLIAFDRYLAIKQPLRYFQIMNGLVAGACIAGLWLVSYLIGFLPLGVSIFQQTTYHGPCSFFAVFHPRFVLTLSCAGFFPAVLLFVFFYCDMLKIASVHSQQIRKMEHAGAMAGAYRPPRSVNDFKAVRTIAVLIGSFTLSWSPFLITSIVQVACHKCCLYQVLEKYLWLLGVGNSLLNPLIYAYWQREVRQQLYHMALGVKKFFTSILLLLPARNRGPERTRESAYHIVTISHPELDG

[2] = Kinetic solubility in FaSSIF at pH 6.5; type: physicochemical; conditions: FaSSIF, read-out: Kinetic_solubility
[3] = target: T2, Glucose-dependent insulinotropic receptor (Mus musculus, UniProt Q7TQP3); assay: Agonist activity at mouse GPR119 by cAMP assay; type: functional
T2 sequence (Q7TQP3 whole entry): T1 sequence (whole entry)

[4] = Lipophilicity, logD of the compound at pH 7 by HPLC method; type: physicochemical; conditions: buffer
[5] = target: T3, Glucose-dependent insulinotropic receptor (Homo sapiens) (UniProt Q8TDV5); assay: Agonist activity at human GPR119 by cAMP assay relative to control; type: functional; design: concentration or dose not given beside the values
T3 sequence (whole entry): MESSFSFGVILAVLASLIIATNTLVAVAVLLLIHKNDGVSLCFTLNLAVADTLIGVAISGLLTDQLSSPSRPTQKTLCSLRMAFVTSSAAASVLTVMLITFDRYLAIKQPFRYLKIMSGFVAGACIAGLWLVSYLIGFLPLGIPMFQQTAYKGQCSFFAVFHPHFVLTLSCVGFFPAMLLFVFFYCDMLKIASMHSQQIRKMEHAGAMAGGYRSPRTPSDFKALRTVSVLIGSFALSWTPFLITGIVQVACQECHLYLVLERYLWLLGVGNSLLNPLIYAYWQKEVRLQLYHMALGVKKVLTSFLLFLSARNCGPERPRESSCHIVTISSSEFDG

[6] = target: T4, Glucose-dependent insulinotropic receptor (Homo sapiens, UniProt Q8TDV5); assay: Agonist activity at human GPR119 expressed in CHO cells by cAMP assay; type: functional, cell-based
T4 sequence (Q8TDV5 whole entry): T3 sequence (whole entry)

[7] = Half life in Wistar Han rat at 0.5 mg/kg, iv LC-MS/MS method; type: ADME, organism-based; conditions: Wistar Han, in vivo
[8] = Solubility in PEG400; type: physicochemical
[9] = Volume of distribution in Beagle dog; type: ADME, organism-based, Canis lupus familiaris; conditions: in vivo
Mus musculus [10] = assay: Reduction in blood glucose excursion in po dosed C57BL/6 Tac mouse by OGTT method; type: functional, organism-based
[11] = Fraction unbound in rhesus monkey plasma; type: ADME, cell-free, Macaca mulatta
[12] = Fraction unbound in rat plasma; type: ADME, cell-free
Rattus norvegicus = assay: Unbound volume of distribution in Wistar Han rat at 0.5 mg/kg, iv LC-MS/MS method; type: ADME, organism-based; conditions: in vivo
[13] = Plasma clearance in Wistar Han rat at 0.5 mg/kg, iv LC-MS/MS method; type: ADME, organism-based
[14] = Solubility in SGF; type: physicochemical
[15] = Drug level in mouse blood at 0.3 mg/kg after 90 mins; type: ADME, organism-based; conditions: whole blood, read-out: Drug uptake
Cavia porcellus = organism: Cavia porcellus; assay: Toxicity in guinea pig assessed as effect on cardiovascular parameters at 64 times over target clinical exposure level; type: organism-based, Heart; conditions: in vivo
[16] = Half life in rhesus monkey; type: ADME, organism-based, Macaca mulatta; conditions: in vivo
[17] = Solubility in FaSSIF; type: physicochemical; conditions: simulated gi fluid
[18] = Oral bioavailability in Wistar Han rat; type: ADME, organism-based; conditions: in vivo
[19] = Drug level in mouse blood at 1 mg/kg after 90 mins; type: ADME, organism-based; conditions: whole blood, read-out: Drug uptake
[20] = Oral bioavailability in rhesus monkey; type: ADME, organism-based, Macaca mulatta; conditions: in vivo
[21] = Plasma clearance in Beagle dog; type: ADME, organism-based, Canis lupus familiaris
[22] = Volume of distribution in rhesus monkey; type: ADME, organism-based, Macaca mulatta; conditions: in vivo
[23] = Fraction unbound in dog plasma; type: ADME, cell-free, Canis lupus familiaris
[24] = Intrinsic clearance in human liver microsomes; type: ADME; conditions: read-out: CLH
[25] = Volume of distribution in Wistar Han rat at 0.5 mg/kg, iv LC-MS/MS method; type: ADME, organism-based; conditions: Wistar Han, in vivo
[26] = Half life in Beagle dog; type: ADME, organism-based, Canis lupus familiaris; conditions: in vivo
[27] = target: T5, Nuclear receptor subfamily 1 group I member 2 (Homo sapiens, UniProt O75469); assay: Activation of human PXR; type: ADME
T5 sequence (O75469 whole entry): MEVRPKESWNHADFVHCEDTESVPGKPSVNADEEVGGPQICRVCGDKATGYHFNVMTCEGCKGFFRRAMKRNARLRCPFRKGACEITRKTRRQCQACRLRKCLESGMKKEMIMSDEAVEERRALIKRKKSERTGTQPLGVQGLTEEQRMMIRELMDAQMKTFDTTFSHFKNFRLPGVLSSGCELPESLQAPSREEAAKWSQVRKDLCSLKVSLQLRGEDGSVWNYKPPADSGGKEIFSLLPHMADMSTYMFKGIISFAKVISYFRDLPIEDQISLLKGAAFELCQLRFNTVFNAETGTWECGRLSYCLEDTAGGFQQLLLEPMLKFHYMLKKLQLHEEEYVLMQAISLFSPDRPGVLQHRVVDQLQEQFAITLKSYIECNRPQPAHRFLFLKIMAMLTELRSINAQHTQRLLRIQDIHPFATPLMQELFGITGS

[28] = Intrinsic clearance in monkey liver microsomes; type: ADME, Macaca mulatta; conditions: rhesus monkey, read-out: CLH
Mus musculus [29] = assay: Reduction in blood glucose excursion in po dosed C57BL/6 Tac mouse assessed as minimal dose for maximum efficacy by OGTT method; type: functional; conditions: read-out: MED
[30] = Intrinsic clearance in rat liver microsomes; type: ADME; conditions: read-out: CLH
[31] = Oral bioavailability in Beagle dog; type: ADME, organism-based, Canis lupus familiaris; conditions: in vivo
[32] = Plasma clearance in rhesus monkey; type: ADME, organism-based, Macaca mulatta
[33] = Drug level in mouse blood at 10 mg/kg after 90 mins; type: ADME, organism-based; conditions: whole blood, read-out: Drug uptake
[34] = Drug level in mouse blood at 3 mg/kg after 90 mins; type: ADME, organism-based; conditions: whole blood, read-out: Drug uptake
[35] = target: T5, Nuclear receptor subfamily 1 group I member 2; assay: Activation of human PXR relative to control; type: ADME
Cytochrome P450 3A4 = Cytochrome P450 3A4 (Homo sapiens, UniProt P08684); assay: Inhibition of CYP3A4 (unknown origin)
Chain of Cytochrome P450 3A4 (P08684 whole entry): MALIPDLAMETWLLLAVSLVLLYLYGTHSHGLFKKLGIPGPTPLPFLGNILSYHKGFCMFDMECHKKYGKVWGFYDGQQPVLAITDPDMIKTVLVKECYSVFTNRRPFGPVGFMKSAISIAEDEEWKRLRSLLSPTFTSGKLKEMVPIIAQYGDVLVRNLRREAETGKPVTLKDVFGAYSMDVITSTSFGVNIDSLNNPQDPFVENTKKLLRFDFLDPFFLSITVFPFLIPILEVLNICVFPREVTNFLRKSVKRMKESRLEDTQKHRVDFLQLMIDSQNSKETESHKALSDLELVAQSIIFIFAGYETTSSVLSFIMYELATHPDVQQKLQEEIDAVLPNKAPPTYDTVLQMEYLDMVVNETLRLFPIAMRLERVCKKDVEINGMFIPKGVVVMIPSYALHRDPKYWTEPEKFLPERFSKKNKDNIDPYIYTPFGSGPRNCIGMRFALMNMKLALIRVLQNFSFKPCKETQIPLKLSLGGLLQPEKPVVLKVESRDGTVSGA

[36] = Intrinsic clearance in dog liver microsomes; type: ADME, Canis lupus familiaris; conditions: read-out: CLH
[37] = Solubility in PEG200; type: physicochemical
[38] = Fraction unbound in human plasma; type: ADME, cell-free

With `CCS(=O)(=O)c1ccc(COC[C@@H]2C[C@@H]2C2CCN(c3ncc(COC)cn3)CC2)c(F)c1` the Activity [1] was 87%, the solubility kinetic [2] was 129 µM (≈ 61.6 µg/mL) and the EC50 [3] was 12.5 nM. It also gave a logD [4] of 3.8, an Activity [5] of 58% and an EC50 [6] of 7.1 nM. The half-life [7] was 126 min.

In the case of `COC(C)c1cnc(N2CCC([C@H]3C[C@H]3COCc3ccc(S(C)(=O)=O)cc3F)CC2)nc1` (stereo in doubt; 30), the Activity [1] is reported as 70% and the Activity [5] is reported as 95%.

`COCc1cnc(N2CCC([C@H]3C[C@H]3COCc3ccc(S(C)(=O)=O)c(F)c3)CC2)nc1` showed an Activity [1] of 87%, a solubility kinetic [2] of 155 µM (≈ 71.9 µg/mL) and an EC50 [3] of 5.2 nM. It also gave a logD [4] of 3.5, an Activity [5] of 94% and an EC50 [6] of 3.3 nM. It also gave a half-life [7] of 72 min.

Molecule `O=S(=O)(CCO)c1ccc(COC[C@@H]2C[C@@H]2C2CCN(c3ncc(Cl)cn3)CC2)c(F)c1` has an Activity [1] of 121%, a solubility kinetic [2] of 83 µM (≈ 40.2 µg/mL) and an EC50 [3] of 1.7 nM. It also gave a logD [4] of 4.8, an Activity [5] of 68% and an EC50 [6] of 2.3 nM. For the same molecule, the half-life [7] was 54 min.

`CC1(OC(=O)N2CCC([C@H]3C[C@H]3COCc3ccc(-n4cnnn4)cc3F)CC2)CC1` showed an Activity [1] of 108%, a solubility kinetic [2] of 127 µM (≈ 54.5 µg/mL) and an EC50 [3] of 15 nM. The logD [4] was 3.8, the Activity [5] was 121% and the EC50 [6] was 4.8 nM. For the same molecule, the half-life [7] was 60 min.

In the case of `COCc1cnc(N2CCC([C@H]3C[C@H]3COCc3ccc(S(C)(=O)=O)cc3F)CC2)nc1`, the solubility [8] is reported as 325 mg/mL (≈ 701000 µM), the Vd [9] is reported as 6.5 L/kg and the Activity (Mus musculus [10]) is reported as “Dose-dependent effect”. The fraction unbound [11] was 0.032, the fraction unbound [12] was 0.041 and the Vdu (Rattus norvegicus) was 54 L/kg. The clearance [13] was 41 mL/min/kg, the Activity [1] was 97% and the solubility [14] was 870 µg/mL (≈ 1880 µM). It also gave a solubility kinetic [2] of 161 µM (≈ 74.6 µg/mL), a concentration at 1.5 h [15] of 18 nM and an EC50 [3] of 1.9 nM. For the same molecule, the Activity (Cavia porcellus) was “Non-toxic”, the half-life [16] was 138 min and the solubility [17] was 56 µg/mL (≈ 121 µM). For the same molecule, the bioavailability [18] was 27%, the concentration at 1.5 h [19] was 86 nM and the bioavailability [20] was 5%. For the same molecule, the clearance [21] was 6 mL/min/kg, the logD [4] was 3.5 and the Vd [22] was 2 L/kg. It also gave a fraction unbound [23] of 0.055, a CLint scaled [24] of 42 mL/min/kg and a Vd [25] of 2.2 L/kg. The half-life [26] was 1020 min, the EC50 [27] was over 30 µM and the CLint scaled [28] was 319 mL/min/kg. The minimal effective dose (Mus musculus [29]) was 3 mg/kg, the CLint scaled [30] was 1100 mL/min/kg and the bioavailability [31] was 60%. It also gave a clearance [32] of 16 mL/min/kg, a concentration at 1.5 h [33] of 622 nM and an Activity [5] of 88%. For the same molecule, the concentration at 1.5 h [34] was 302 nM, the Activity [35] was 39% and the EC50 [6] was 2.1 nM. It also gave an IC50 (Cytochrome P450 3A4) of 40 µM, a CLint scaled [36] of 60 mL/min/kg and a solubility [37] of 129 mg/mL (≈ 278000 µM). For the same molecule, the fraction unbound [38] was 0.049 and the half-life [7] was 60 min.

With `CCOc1cnc(N2CCC([C@H]3C[C@H]3COCc3ccc(S(C)(=O)=O)c(F)c3)CC2)nc1` the Activity [1] was 96%, the solubility kinetic [2] was 101 µM (≈ 46.8 µg/mL) and the EC50 [3] was 2.3 nM. For the same molecule, the logD [4] was 4.2, the Activity [5] was 75% and the EC50 [6] was 1.7 nM. For the same molecule, the half-life [7] was 48 min.

`COCc1cnc(N2CCC([C@H]3C[C@H]3COCc3cc(F)c(S(C)(=O)=O)c(F)c3)CC2)nc1` gave an Activity [1] of 67%, a solubility kinetic [2] of 115 µM (≈ 55.4 µg/mL) and an EC50 [3] of 5.8 nM. For the same molecule, the logD [4] was 3.6, the Activity [5] was 80% and the EC50 [6] was 4.5 nM. For the same molecule, the half-life [7] was 30 min.

`COC(C)c1cnc(N2CCC([C@H]3C[C@H]3COCc3ccc(S(C)(=O)=O)cc3F)CC2)nc1` (stereo in doubt; 29) gave an Activity [1] of 109% and an Activity [5] of 87%.

In the case of `COc1cnc(N2CCC([C@H]3C[C@H]3COCc3ccc(S(C)(=O)=O)cc3F)CC2)nc1`, the Activity [1] is reported as 85%, the solubility kinetic [2] is reported as 151 µM (≈ 67.9 µg/mL) and the EC50 [3] is reported as 1.4 nM. For the same molecule, the logD [4] was 4, the Activity [5] was 79% and the EC50 [6] was 4.5 nM. For the same molecule, the half-life [7] was 36 min.
